How the values were obtained:
ERα [1] = biological target: T1, ERα (Homo sapiens, UniProt P03372); test: Luciferase reporter gene assay (3*ERE) in HEK293 cells, ERα; assay type: cell-based; set-up: expressed in transfected cells; host or cells: transient transfection; conditions: 48 hours
T1 sequence (P03372 1-595): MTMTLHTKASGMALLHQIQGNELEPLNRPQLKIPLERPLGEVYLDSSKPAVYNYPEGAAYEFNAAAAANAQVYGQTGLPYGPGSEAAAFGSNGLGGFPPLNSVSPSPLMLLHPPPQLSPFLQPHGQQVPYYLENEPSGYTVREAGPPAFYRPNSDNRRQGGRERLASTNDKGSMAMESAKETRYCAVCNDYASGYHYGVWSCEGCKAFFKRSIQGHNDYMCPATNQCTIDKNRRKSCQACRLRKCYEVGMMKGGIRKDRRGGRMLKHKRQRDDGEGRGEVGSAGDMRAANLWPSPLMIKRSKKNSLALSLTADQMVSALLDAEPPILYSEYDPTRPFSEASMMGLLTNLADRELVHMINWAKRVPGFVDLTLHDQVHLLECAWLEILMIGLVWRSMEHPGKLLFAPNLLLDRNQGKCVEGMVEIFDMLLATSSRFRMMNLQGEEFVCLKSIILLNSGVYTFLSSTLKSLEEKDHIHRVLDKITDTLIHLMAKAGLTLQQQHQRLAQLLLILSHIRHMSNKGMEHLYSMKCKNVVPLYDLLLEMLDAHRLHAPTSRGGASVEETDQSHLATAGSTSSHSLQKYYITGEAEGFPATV
Description: (§1) HEK293 cells were grown to 70% confluency in DMEM containing 10% calf serum (Hyclone) prior to transfection. On the day of transfection (day 1), expression vectors for ERα or ERβ were cotransfected along a construct containing a synthetic 3*ERE upstream of the luciferase gene (Panomics), using Polyfect (Qiagen) per manufacturer's recommendations (ERE being estrogen response element). Sixteen hours post-transfection, cells were incubated in serum free DMEM. […] Cells extracts were then obtained by lyzing and the Luciferase activity measured, all of these steps performed using a commercially available kit (Promega).

ERα [2] = biological target: T1, ERα; test: Competitive 3H-estradiol binding assay, ERα; conditions: 1 nM 3H-estradiol, HEK293T cytosolic extract; read-out: Binding ERα pKi (converted)
Description: (§2) HEK293T cells were transiently transfected for 48 hours with expression vectors encoding ERα or ERβ, before being serum starved for 4-6 hours. Cells were then harvested by scraping in ice-cold PBS and subsequently lysed using a cold buffer containing 10 mM Tris pH 7.4, 1 mM EDTA, 1 mM DTT before being subjected to polytron twice for 10 seconds. Cytosolic extracts were isolated by centrifugation at 15000 g for 30 minutes at 4° C. Competitive binding of the test compounds or the estradiol control was performed on 20 μL extract by overnight incubation at 4° C. in a total volume of 100 μL containing 1 nM ^3H-estradiol (Perkin Elmer, Boston, Mass.). The bound fraction was separated from the unbound one by the addition of 100 μL of Dextran coated charcoal, incubated for 10 minutes and subsequent centrifugation at 1000 rpm for 10 minutes. Samples (100 μL per sample) were then analyzed by liquid scintillation. Data was then analyzed using the curve fitting software GraphPad Prism.

[3] = system: bilateral 6-hydroxydopamine (6OHDA) lesion of the substantia nigra; test: Bilateral 6OHDA lesion of the substantia nigra, behavioral assessment; assay type: in vivo, Male rats; conditions: 6OHDA rats, once daily 7 days sc; 10 mg/kg (estradiol 100 μg/kg)
Description: (§3) Male rats received baseline assessment of weight, motor function (spontaneous locomotor behavior, rotorod performance) and sensorimotor gating (prepulse inhibition). Subjects were assigned to treatment conditions to equalize performance on all these measures. Subjects were then treated once daily for 7 days with either sesame oil vehicle, estradiol (100 μg/kg sc), Comparative substance 131 (10 mg/kg sc), Compound 8 (10 mg/kg sc), Comparative substance 623 (10 mg/kg sc) or Comparative substance 957 (10 mg/kg sc). On the second day of treatment, subjects received bilateral sham or 6OHDA lesions (8 μg in 4 μl) of the substantia nigra (A/P−5.0 mm, M/L±1.6 mm, D/V−8.2 mm) following the atlas of Paxinos and Watson (Paxinos, G., Watson, C., The Rat Brain in Stereotaxic Coordinates, Fourth Edition, New York: Academic Press, Spiral Bound, 1998). Behavioral assessments of motor function (spontaneous locomotion, rotorod and traversing a challenging beam), cognition (novel object recognition) and sensorimotor gating (prepulse inhibition) began after the final day of treatment. Following behavioral assessment, SN and striatal tissue were collected in order to determine the intactness of the nigrostriatal dopamine system.

ERβ [4] = biological target: T2, ERβ (Homo sapiens, UniProt Q92731); test: R-SAT functional assay, ERβ; assay type: cell-based; set-up: expressed in transfected cells; host or cells: transient transfection; conditions: NIH3T3; NIH-3T3 cells; read-out: R-SAT Erβ % Eff
T2 sequence (Q92731 whole entry, species assumed): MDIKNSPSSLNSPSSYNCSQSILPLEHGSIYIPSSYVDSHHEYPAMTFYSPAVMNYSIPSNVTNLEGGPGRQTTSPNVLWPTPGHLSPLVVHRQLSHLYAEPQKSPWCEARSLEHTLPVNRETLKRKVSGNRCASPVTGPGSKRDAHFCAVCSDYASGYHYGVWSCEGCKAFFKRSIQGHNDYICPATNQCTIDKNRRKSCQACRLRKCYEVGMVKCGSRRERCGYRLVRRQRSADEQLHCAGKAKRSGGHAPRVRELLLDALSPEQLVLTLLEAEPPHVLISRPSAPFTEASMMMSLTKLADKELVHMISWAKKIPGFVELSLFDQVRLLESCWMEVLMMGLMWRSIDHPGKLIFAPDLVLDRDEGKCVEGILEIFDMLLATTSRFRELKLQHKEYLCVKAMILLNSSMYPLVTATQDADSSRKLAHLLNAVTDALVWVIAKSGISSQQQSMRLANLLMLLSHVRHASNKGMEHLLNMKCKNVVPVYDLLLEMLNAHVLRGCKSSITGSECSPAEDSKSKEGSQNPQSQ
Text: (§4) R-SAT® (Receptor Selection and Amplification Technology) is a cell-based functional assay that allows one to monitor receptor-dependent proliferative responses and has been described elsewhere. […] This process is achieved by partial cellular transformation via loss of contact inhibition and growth factor dependency. Monitoring is achieved by transfecting the cells with a β-galactosidase reporter gene vector whose expression is under a constitutively active promoter. Briefly, NIH-3T3 fibroblasts were plated overnight in 96-wells plates in DMEM 10% calf serum (Hyclone) and grown to 60-70% confluency prior to transfection. Transient transfections were performed using Polyfect (Qiagen) according to manufacturer's instructions. Typically a transfection mix would consist of the receptor and the β-galactosidase expression vectors. Sixteen hours post-transfection, cells were incubated with different doses of ligand in DMEM containing 30% Ultraculture (Hyclone) and 0.4% calf serum (Hyclone) to generate a dose response curve. […] Plates were read using a microplate reader at 420 nm. Data from R-SAT® assays were fit to the equation: r=A+B(x/(x+c)), where A=minimum response, B=maximum response minus minimum response, c=EC50, r=response, and x=concentration of ligand. Curves were generated using the curve fitting softwares Excel Fit and GraphPad Prism (San Diego, Calif.). Luciferase Reporter Gene Assay

ERα [5] = biological target: T1, ERα; test: R-SAT functional assay, ERα; assay type: cell-based; set-up: expressed in transfected cells; host or cells: NIH-3T3 fibroblasts, transient transfection; conditions: NIH-3T3 cells
Text: as §4

ERβ [6] = biological target: T2, ERβ; test: Luciferase reporter gene assay (3*ERE) in HEK293 cells, ERβ; assay type: cell-based; set-up: expressed in transfected cells; host or cells: HEK293 cells, transient transfection
Description: as §1

[7] = Microsomal bioavailability (Table 2); assay type: in vitro ADME; conditions: read-out: Microsomal bioavailability F (%)
ERβ [8] = biological target: T2, ERβ; test: Competitive 3H-estradiol binding assay, ERβ; set-up: expressed in transfected cells; host or cells: HEK293 cells, transient transfection
Description: as §2, with “Cells” for “HEK293T cells were transiently transfected for 48 hours with expression vectors encoding ERα or ERβ, before being serum starved for 4-6 hours. Cells”

ERβ [9] = biological target: T2, ERβ; test: R-SAT functional assay, ERβ; assay type: cell-based; set-up: expressed in transfected cells; host or cells: transient transfection
[10] = system: nigrostriatal dopamine neurons; test: Tyrosine hydroxylase immunofluorescence in SN and STR after 6OHDA lesion; assay type: in vivo, Male rats; conditions: 6OHDA rats, once daily 7 days sc; 10 mg/kg (estradiol 100 μg/kg)
Description: as §3
Comparative compound 131 and Compound 8 were compared with estradiol for their ability to protect nigrostriatal dopamine neurons as measured by tyrosine hydroxylase (TH) immunohistochemistry in the SN and striatum (STR).

Q: Which “Luciferase Erα % Eff” value (ERα [1]) does the source give for `Oc1ccc(C2(c3ccccc3)CCCCC2)cc1` [Compound 131] here?
A: 29%

Q: What about the EC50 (ERα [1]; na = not active, read-out: Luciferase Erα pEC50 (converted)) of the same compound?
A: 15.8 µM

Q: And the Ki (ERα [2])?
A: 1 µM

Q: What about the “motor performance (spontaneous locomotor activity, rotorod, challenging beam)” value [3] of the same compound?
A: prevented the impairment

Q: What about the “novel object recognition (cognition)” value [3] of the same compound?
A: showed improved memory

Q: What about the “prepulse inhibition (sensorimotor gating)” value [3] of the same compound?
A: prevented the 6OHDA-induced deficit in PPI

Q: What about the Emax (ERβ [4]) of the same compound?
A: 71%

Q: What about the “R-SAT Erα % Eff” value (ERα [5]) of the same compound?
A: 42%

Q: And the EC50 (ERβ [6])?
A: 0.02 µM

Q: What about the Emax (ERβ [6]; HEK293 cells, 48 hours, read-out: Luciferase Erβ % Eff) of the same compound?
A: 80%

Q: And the Microsomal bioavailability (predicted from microsomes) [7]?
A: 0%

Q: What about the Ki (ERβ [8]) of the same compound?
A: 0.0501 µM

Q: What about the EC50 (ERβ [9]) of the same compound?
A: 0.0316 µM

Q: And the “percent immunopositive and mean pixel intensity of TH immunofluorescence in the STR” value [10]?
A: increase in percentage of the image that was immunopositive and increased mean pixel intensity

Q: And the “percent immunopositive, mean cell size and mean pixel intensity of TH immunofluorescence in the SN” value [10]?
A: improved percent immunopositive, mean cell size and mean pixel intensity

Q: What about the “tyrosine hydroxylase positive cell number in the SN” value [10] of the same compound?
A: prevented the reduction in cell number
